Tests used:
Aβ1-40 = Aβ1-40 (Homo sapiens, UniProt P05067); assay type: biochemical; conditions: Table VIII; 5 μM test compound
Source text: The nucleation assay is employed to determine the ability of test compounds to alter (e.g. inhibit) the early events in formation of β-AP fibers from monomeric β-AP. Characteristic of a nucleated polymerization mechanism, a lag time is observed prior to nucleation, after which the peptide rapidly forms fibers as reflected in a linear rise in turbidity. The time delay before polymerization of β-AP monomer can be quantified as well as the extent of formation of insoluble fiber by light scattering (turbidity). Polymerization reaches equilibrium when the maximum turbidity reaches a plateau The turbidity of a solution of natural β-AP in the absence or presence of various concentrations of a β-amyloid modulator compound is determined by measuring the apparent absorbance of the solution at 405 nm (A405 nm) over time. The threshold of sensitivity for the measurement of turbidity is in the range of 15-20 μM β-AP. […] This assay can be performed using stirring or shaking to accelerate polymerization, thereby increasing the speed of the assay. Moreover the assay can be adapted to a 96-well plate format to screen multiple compounds.
HFIP-solubilized peptide is sonicated in a waterbath sonicator for 5 min at highest setting, then evaporated to dryness under a stream of argon. The peptide film is resuspended in anhydrous dimethylsulfoxide (DMSO) at a concentration of 6.9 mg/ml (25× concentration), sonicated for 5 min as before, then filtered through a 0.2 micron nylon syringe filter (VWR cat. No.28196-050). Test compounds are dissolved in DMSO at a 100× concentration. […] Ten microliters of the mixture is then added to the bottom of a well of a Corning Costar ultra low binding 96-well plate (Coming Costar, Cambridge Mass.; cat. No. 2500). Ninety microliters of water is added to the well, the plate is shaken on a rotary shaken at a constant speed at room temperature for 30 seconds, an additional 100 μl of 2× PTL buffer (20 mM NaH2PO4, 300 mM NaCl, pH 7.4) is added to the well, the plate is reshaken for 30 seconds and a baseline (t=0) turbidity reading is taken by measuring the apparent absorbance at 405 nm using a Bio-Rad Model 450 Microplate Reader. The plate is then returned to the shaker and shaken continuously for 5 hours. Turbidity readings are taken at 15 minute intervals.
β-amyloid aggregation in the absence of any modulators results in enhanced turbidity of the natural β-AP solution (i.e., an increase in the apparent absorbance at 405 nm over time). […]

[1] = Brain uptake of tritium-labelled PPI-558 after subcutaneous injection; conditions: male rats, single subcutaneous injection 4.6 mg/kg, 2 hours (FIG. 4)
Procedure: Male Sprague-Dawley rats (259-280 g) received a single subcutaneous injection in the nape of the neck (4.6 mg/kg at 1 ml/kg=4.6 mg/ml in 100% Sesame Oil). At various time points post administration (2, 8 and 24 hours; n=4/time point), the animlas were anesthetized. Trunk blood was taken to determine plasma levels of the parent compound and the left side of the brain was perfused with 1 ml of saline over 30 seconds via the left sommon carotid artery. The brain was rapidly removed and the left forebrain (perfused) was subjected to capillary depletion.

[2] = Safety profile for PPI-558, daily subcutaneous injection for 14 days; conditions: female rats, 3 and 30 mg/kg s.c. daily for 14 days
Procedure: On day 15, animals were sacrificed 1 hour post administration.

[3] = Modulator compound stability in cerebrospinal fluid; conditions: 75% Rhesus monkey CSF, 37° C., 24 hours, HPLC; compared with PPI-368 (FIG. 1)
Procedure: The stability of a modulator compound in cerebrospinal fluid (CSF) can be assayed in an in vitro assay as follows. […] All sample handling is carried out in a laminar flow hood and test solutions are maintained at 37° C. during the assay. […] Samples (at the 0 time point and the 24 hour time point) are analyzed at room temperature using reverse-phase HPLC. A microbore column is used to maximize sensitivity. The parameters for analytical HPLC are as follows:
Chromatographic analysis is performed using a Hewlett Packard 1090 series II HPLC. The column used for separation is a C4, 5 μm, 1×250 mm (Vydac #214TP51). The flow rate is 50 μL/min and the elution profile of the test compounds is monitored at 214, 230, 260 and 280 nm.

Aβ1-40, sequence (P05067 672-711): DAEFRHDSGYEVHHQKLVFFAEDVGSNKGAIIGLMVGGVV

| Compound | ΔLag 5 μM (Aβ1-40) | ratio of brain versus plasma levels [1] | overt toxicity [2] | stability in cerebrospinal fluid [3] |
| --- | --- | --- | --- | --- |
| 4-Hydroxybenzoyl-D-Leu-D-Val-D-Phe-D-Phe-D-Ala-NH2 [PPI-558] | 2.0 | almost twice | No overt toxicity was observed |  |
| CC(C)C[C@@H](NC(=O)CC[C@@H](C)[C@H]1CC[C@H]2[C@@H]3[C@H](O)C[C@@H]4C[C@H](O)CC[C@]4(C)[C@H]3C[C@H](O)[C@]12C)C(=O)N[C@@H](C(=O)N[C@H](Cc1ccccc1)C(=O)N[C@H](Cc1ccccc1)C(=O)N[C@H](C)C(=O)O)C(C)C [PPI-433, cholyl-D-Leu-D-Val-D-Phe-D-Phe-D-Ala-OH] |  |  |  | significantly greater stability in CSF than the L-amino acid-based compound |
